Test results: the NIST ThermoML archive (doi:10.1016/j.jct.2006.10.017)

Legend:
[1] = refractive index (Na D-line) (dimensionless); xn = mol fraction of the nth substance listed; conditions: 101 kPa, Liquid
[2] = xn = mol fraction of the nth substance listed; conditions: 101 kPa, Liquid

CCCCCCCC[n+]1ccn(C)c1.F[P-](F)(F)(F)(F)F [1-octyl-3-methylimidazolium hexafluorophosphate] + CCO
Conditions	mass density, 293.15 K [kg/m3]	mass density, 298.15 K [kg/m3]	mass density, 303.15 K [kg/m3]	refractive index, 293.15 K	refractive index, 298.15 K	refractive index, 303.15 K	speed of sound, 293.15 K [m/s]	speed of sound, 298.15 K [m/s]	speed of sound, 303.15 K [m/s]
[1], x1 = 0.0447	–	–	–	1.37484	1.37299	1.37124	–	–	–
[1], x1 = 0.0982	–	–	–	1.38484	1.38315	1.38286	–	–	–
[1], x1 = 0.1976	–	–	–	1.3975	1.3959	1.39478	–	–	–
[1], x1 = 0.2897	–	–	–	1.40449	1.40291	1.40181	–	–	–
[1], x1 = 0.3897	–	–	–	1.41009	1.40855	1.40752	–	–	–
[1], x1 = 0.499	–	–	–	1.41448	1.41289	1.41174	–	–	–
[1], x1 = 0.5896	–	–	–	1.41703	1.41553	1.41412	–	–	–
[1], x1 = 0.708	–	–	–	1.41965	1.41817	1.41682	–	–	–
[1], x1 = 0.8037	–	–	–	1.4215	1.42004	1.41858	–	–	–
[1], x1 = 0.904	–	–	–	1.42304	1.42165	1.42026	–	–	–
[1], x1 = 0.9502	–	–	–	1.42375	1.42231	1.42112	–	–	–
[1], x1 = 1	–	–	–	1.4244	1.42302	1.42165	–	–	–
[2], x1 = 0.0447	873.9	869.7	865.4	–	–	–	1180	1165	1151
[2], x1 = 0.0982	946.5	942.3	938.1	–	–	–	1206	1193	1180
[2], x1 = 0.1976	1035.8	1031.7	1027.5	–	–	–	1257	1245	1233
[2], x1 = 0.2897	1089.5	1085.3	1081.1	–	–	–	1295	1283	1271
[2], x1 = 0.3897	1130.4	1126.3	1122.2	–	–	–	1327	1315	1303
[2], x1 = 0.499	1162.8	1158.8	1154.8	–	–	–	1352	1340	1328
[2], x1 = 0.5896	1183.2	1179.3	1175.3	–	–	–	1369	1357	1344
[2], x1 = 0.708	1204.3	1200.4	1196.5	–	–	–	1386	1373	1360
[2], x1 = 0.8037	1217.9	1214	1210.2	–	–	–	1398	1385	1372
[2], x1 = 0.904	1229.9	1226	1222.2	–	–	–	1411	1397	1383
[2], x1 = 0.9502	1234.7	1230.9	1227.1	–	–	–	1416	1401	1387
[2], x1 = 1	1239.6	1235.7	1231.9	–	–	–	1424	1408	1393

CCO [ethanol] + CCCCn1cc[n+](C)c1.COS(=O)(=O)[O-]
x2 = 0
Conditions	mass density, 293.15 K [kg/m3]	mass density, 298.15 K [kg/m3]	mass density, 303.15 K [kg/m3]	refractive index, 293.15 K	refractive index, 298.15 K	refractive index, 303.15 K	speed of sound, 293.15 K [m/s]	speed of sound, 298.15 K [m/s]	speed of sound, 303.15 K [m/s]
[1]	–	–	–	1.36138	1.35929	1.35725	–	–	–
[2]	789.3	785.1	780.7	–	–	–	1160	1143	1127

CCCCn1cc[n+](C)c1.F[P-](F)(F)(F)(F)F [1-butyl-3-methylimidazolium hexafluorophosphate] + CCO
Conditions	mass density, 293.15 K [kg/m3]	mass density, 298.15 K [kg/m3]	mass density, 303.15 K [kg/m3]	refractive index, 293.15 K	refractive index, 298.15 K	refractive index, 303.15 K	speed of sound, 293.15 K [m/s]	speed of sound, 298.15 K [m/s]	speed of sound, 303.15 K [m/s]
[1], x1 = 0.0009	–	–	–	1.36162	1.35956	1.35751	–	–	–
[1], x1 = 0.0021	–	–	–	1.36196	1.3599	1.35781	–	–	–
[1], x1 = 0.0033	–	–	–	1.36222	1.36018	1.35812	–	–	–
[1], x1 = 0.0056	–	–	–	1.36281	1.3608	1.35871	–	–	–
[1], x1 = 0.496	–	–	–	1.40171	1.40034	1.3994	–	–	–
[1], x1 = 0.5032	–	–	–	1.40193	1.40055	1.39959	–	–	–
[1], x1 = 0.5981	–	–	–	1.40432	1.40294	1.40176	–	–	–
[1], x1 = 0.7045	–	–	–	1.40639	1.40507	1.40376	–	–	–
[1], x1 = 0.8003	–	–	–	1.4079	1.40656	1.40522	–	–	–
[1], x1 = 0.9002	–	–	–	1.4093	1.40799	1.40666	–	–	–
[1], x1 = 0.9834	–	–	–	1.41052	1.40923	1.40795	–	–	–
[1], x1 = 1	–	–	–	1.41069	1.40937	1.40808	–	–	–
[2], x1 = 0.0009	791.5	787.4	783.1	–	–	–	1163	1144	1126
[2], x1 = 0.0021	794.3	790.1	785.8	–	–	–	1162	1145	1128
[2], x1 = 0.0033	797	792.8	788.5	–	–	–	1164	1146	1128
[2], x1 = 0.0056	802.3	798.1	793.8	–	–	–	1166	1147	1130
[2], x1 = 0.496	1246.7	1242.2	1237.9	–	–	–	1371	1359	1347
[2], x1 = 0.5032	1249.4	1245	1240.7	–	–	–	1373	1361	1349
[2], x1 = 0.5981	1282	1277.6	1273.4	–	–	–	1397	1384	1372
[2], x1 = 0.7045	1311.6	1307.3	1303	–	–	–	1417	1404	1391
[2], x1 = 0.8003	1333.9	1329.6	1325.4	–	–	–	1431	1418	1405
[2], x1 = 0.9002	1354.1	1349.9	1345.7	–	–	–	1443	1430	1418
[2], x1 = 0.9834	1368.8	1364.7	1360.5	–	–	–	1454	1440	1428
[2], x1 = 1	1371.6	1367.3	1363	–	–	–	1455	1443	1431
